Results from patent publication US10696687B2, “Pyrazolo fused heterocyclic compounds as ERK inhibitors” (CHANGZHOU JIEKAI PHARMATECH CO., LTD., priority 2015, dated 2020).

What follows are compounds tested on Colon cancer cells (Colo205 cell line) (assay: Colo205 cell proliferation assay (MTT assay, WST-8 readout)). Details: Homo sapiens, COLO 205, 72 hours incubation, absorbance at 450 nm, read-out: Colo 205 cell growth inhibition IC50.
Type: cell-based
Procedure: Compounds disclosed herein were tested for the inhibition of ERK2 by a Colo205 cell proliferation assay commonly known as MTT assay. In this assay, a complete media was prepared by adding 10% fetal bovine serum to RPMI-1640 medium (Life technology). Colon cancer cells (Colo205 cell line) were added to each of 88 wells of a 96 well plate at a seeding density of 5,000 cells/well/90 μL. The cells were allowed to attach to the plate by incubating at 37° C. for 24 hours. The compound was dissolved in DMSO (SIGMA). A solution of test compound was prepared in complete media by serial dilution to obtain the following concentrations: 500 μM, 150 μM, 50 μM, 15 μM, 5 μM, 1.5 μM, 0.5 μM, 0.15 μM and 0.05 μM. The test compound solution (10 μL) was added to each of 80 cell-containing wells. The final concentrations of the compound were following: 50 μM, 15 μM, 5 μM, 1.5 μM, 0.5 μM, 0.15 μM, 0.05 μM, 0.015 μM and 0.005 μM. The final concentration of DMSO is 0.5%. To the 8 remaining cell-containing wells, only complete media (containing 0.5% DMSO) was added to form a control group in order to measure maximal proliferation. To the remaining 8 empty wells, complete media was added to for a vehicle control group in order to measure background. The plates were incubated at 37° C. for 72 hours. 10 μL WST-8 solution (DOJINDO, Cell Counting KIT-8) was added to each well. The plates were further incubated at 37° C. for 2 hours, and then read for the absorbance using a microplate reader at 450 nm.

| IC50 | Structure (SMILES) |
| --- | --- |
| 0.052 to 10 µM | CN1C[C@H](NC(=O)c2cnc3[nH]nc(N4CCOCC4)c3c2)[C@@H](c2ccccc2C(F)(F)F)C1 (relative stereo) [Compound 9, trans-N-(1-methyl-4-(2-(trifluoromethyl)phenyl)pyrrolidin-3-yl)-3-morpholino-1H-pyrazolo[3,4-b]pyridine-5-carboxamide] |
| 0.052 to 10 µM | Cc1cc(-c2n[nH]c3ncc(C(=O)N[C@@H]4COC[C@H]4c4ccccc4)cc23)ccn1 [Compound 35, trans-3-(2-methylpyridin-4-yl)-N-(4-phenyltetrahydrofuran-3-yl)-1H-pyrazolo[3,4-b]pyridine-5-carboxamide] |
| 0.052 to 10 µM | COCCN1C[C@@H](NC(=O)c2cnc3[nH]nc(-c4ccnc(C)c4)c3c2)[C@H](c2ccccc2C(F)(F)F)C1 [Compound 22, N-((3S,4R)-1-(2-methoxyethyl)-4-(2-(trifluoromethyl)phenyl)pyrrolidin-3-yl)-3-(2-methylpyridin-4-yl)-1H-pyrazolo[3,4-b]pyridine-5-carboxamide] |
| 0.052 to 10 µM | Cc1cc(-c2n[nH]c3ncc(C(=O)N[C@H]4CN(C)C[C@@H]4c4ccc(F)cc4Cl)cc23)ccn1 (relative stereo) [Compound 28, trans-N-(-4-(2-chloro-4-fluorophenyl)-1-methylpyrrolidin-3-yl)-3-(2-methylpyridin-4-yl)-1H-pyrazolo[3,4-b]pyridine-5-carboxamide] |
| 0.052 to 10 µM | Cc1cc(-c2n[nH]c3ncc(C(=O)N[C@H]4CNC[C@@H]4c4ccccc4C(F)(F)F)cc23)ccn1 (stereo in doubt) [Compound 19, 3-(2-methylpyridin-4-yl)-N-(-4-(2-(trifluoromethyl)phenyl)pyrrolidin-3-yl)-1H-pyrazolo[3,4-b]pyridine-5-carboxamide] |
| 0.052 to 10 µM | CCCN1C[C@H](NC(=O)c2cnc3[nH]nc(-c4ccnc(C)c4)c3c2)[C@@H](c2ccccc2C(F)(F)F)C1 (relative stereo) [Compound 29, trans-3-(2-methylpyridin-4-yl)-N-(-1-propyl-4-(2-(trifluoromethyl)phenyl)pyrrolidin-3-yl)-1H-pyrazolo[3,4-b]pyridine-5-carboxamide] |
| 0.052 to 10 µM | Cc1cc(-c2n[nH]c3ncc(C(=O)N[C@H]4CN(C)C[C@@H]4c4ccccc4C(F)(F)F)cc23)ccn1 (single isomer, unassigned) [Compound 15] |
| 0.052 to 10 µM | Cc1cc(-c2n[nH]c3ncc(C(=O)N[C@H]4CN(C)C[C@@H]4c4ccccc4F)cc23)ccn1 (relative stereo) [Compound 16, trans-N-(-4-(2-fluorophenyl)-1-methylpyrrolidin-3-yl)-3-(2-methylpyridin-4-yl)-1H-pyrazolo[3,4-b]pyridine-5-carboxamide] |
| 0.052 to 10 µM | CCN1C[C@H](NC(=O)c2cnc3[nH]nc(-c4ccnc(C)c4)c3c2)[C@@H](c2ccccc2C(F)(F)F)C1 (relative stereo) [Compound 26, trans-N-(-1-ethyl-4-(2-(trifluoromethyl)phenyl)pyrrolidin-3-yl)-3-(2-methylpyridin-4-yl)-1H-pyrazolo[3,4-b]pyridine-5-carboxamide] |
| 0.052 to 10 µM | Cc1cc(-c2n[nH]c3ccc(C(=O)N[C@@H]4CN(C)C[C@H]4c4ccccc4Cl)cc23)ccn1 (relative stereo) [Compound 31, trans-N-(-4-(2-chlorophenyl)-1-methylpyrrolidin-3-yl)-3-(2-methylpyridin-4-yl)-1H-indazole-5-carboxamide] |
| 0.052 to 10 µM | Cc1cc(-c2n[nH]c3ncc(NC(=O)N[C@@H](C)c4ccccc4)cc23)ccn1 [Compound 4, (S)-1-(3-(2-methylpyridin-4-yl)-1H-pyrazolo[3,4-b]pyridin-5-yl)-3-(1-phenylethyl)urea] |
| 0.052 to 10 µM | Cc1cc(-c2n[nH]c3ncc(C(=O)N[C@H]4CN(C)C[C@@H]4c4ccccc4Cl)cc23)ccn1 [Compound 34, N-((3R,4S)-4-(2-chlorophenyl)-1-methylpyrrolidin-3-yl)-3-(2-methylpyridin-4-yl)-1H-pyrazolo[3,4-b]pyridine-5-carboxamide] |
| 0.052 to 10 µM | Cc1cc(-c2n[nH]c3ncc(C(=O)N[C@H]4CN(C)C[C@@H]4c4ccc(F)cc4)cc23)ccn1 (relative stereo) [Compound 24, trans-N-(-4-(4-fluorophenyl)-1-methylpyrrolidin-3-yl)-3-(2-methylpyridin-4-yl)-1H-pyrazolo[3,4-b]pyridine-5-carboxamide] |
| 0.052 to 10 µM | Cc1cc(-c2n[nH]c3ncc(C(=O)N[C@H]4CN(C)C[C@@H]4c4ccc(F)cc4F)cc23)ccn1 (relative stereo) [Compound 25, trans-N-(-4-(2,4-difluorophenyl)-1-methylpyrrolidin-3-yl)-3-(2-methylpyridin-4-yl)-1H-pyrazolo[3,4-b]pyridine-5-carboxamide] |
| 0.052 to 10 µM | Cc1cc(-c2n[nH]c3ccc(C(=O)N[C@H]4CN(C)C[C@@H]4c4ccccc4F)cc23)ccn1 (relative stereo) [Compound 23, trans-N-(-4-(2-fluorophenyl)-1-methylpyrrolidin-3-yl)-3-(2-methylpyridin-4-yl)-1H-indazole-5-carboxamide] |
| 0.052 to 10 µM | Cc1cc(-c2n[nH]c3ncc(C(=O)N[C@@H]4CN(C(C)C)C[C@H]4c4ccccc4C(F)(F)F)cc23)ccn1 [Compound 21, N-((3S,4R)-1-isopropyl-4-(2-(trifluoromethyl)phenyl)pyrrolidin-3-yl)-3-(2-methylpyridin-4-yl)-1H-pyrazolo[3,4-b]pyridine-5-carboxamide] |
| 0.052 to 10 µM | Cc1cc(-c2n[nH]c3nc(NC(=O)N[C@H](C)c4ccccc4)ccc23)ccn1 [Compound 2, (R)-1-(3-(2-methylpyridin-4-yl)-1H-pyrazolo[3,4-b]pyridin-6-yl)-3-(1-phenylethyl)urea] |
| 0.052 to 10 µM | COc1cc(-c2n[nH]c3ncc(C(=O)N[C@H]4CN(C)C[C@@H]4c4ccccc4C(F)(F)F)cc23)ccn1 (relative stereo) [Compound 13, trans-3-(2-methoxypyridin-4-yl)-N-(1-methyl-4-(2-(trifluoromethyl)phenyl)pyrrolidin-3-yl)-1H-pyrazolo[3,4-b]pyridine-5-carboxamide] |
| 0.052 to 10 µM | Cc1cc(-c2n[nH]c3ncc(C(=O)N[C@H]4CN(S(C)(=O)=O)C[C@@H]4c4ccccc4C(F)(F)F)cc23)ccn1 (stereo in doubt) [Compound 20, 3-(2-methylpyridin-4-yl)-N-(-1-(methylsulfonyl)-4-(2-(trifluoromethyl)phenyl)pyrrolidin-3-yl)-1H-pyrazolo[3,4-b]pyridine-5-carboxamide] |
| 0.052 to 10 µM | Cc1cc(-c2n[nH]c3ncc(C(=O)N[C@H]4CN(C)C[C@@H]4c4cccc(Cl)c4)cc23)ccn1 (relative stereo) [Compound 10, trans-N-(4-(3-chlorophenyl)-1-methylpyrrolidin-3-yl)-3-(2-methylpyridin-4-yl)-1H-pyrazolo[3,4-b]pyridine-5-carboxamide] |
| 0.052 to 10 µM | Cc1cc(-c2n[nH]c3ncc(C(=O)N[C@@H]4C[C@H]4c4ccccc4Cl)cc23)ccn1 (relative stereo) [Compound 40, trans-N-(2-(2-chlorophenyl)cyclo-propyl)-3-(2-methylpyridin-4-yl)-1H-pyrazolo[3,4-b]pyridine-5-carboxamide] |
| 0.052 to 10 µM | Cc1cc(-c2n[nH]c3ncc(C(=O)N[C@@H]4CN(C)C[C@H]4c4ccccc4C(F)(F)F)cc23)ccn1 (single isomer, unassigned) [Compound 14] |
